Results as given in patent US20080096811A1, “[…] VPAC2 RECEPTOR PEPTIDE AGONISTS” (Eli Lilly and Company, published 2008).
*1 amine or outer side, *2 acyl side, *3 side chain or, on linkers, in order; H or OH if unused. Where a SMILES comes first, the peptide text is derived from it. Where no end group is shown, it is not given here. Side-chain parts run from the residue outwards. The star is where a group is joined. γGlu = O=C(O)[C@H](CCC(=O)[*:2])N[*:1]; Palmitoyl = CCCCCCCCCCCCCCCC(=O)*; Hexanoyl = CCCCCC(=O)*; Propionyl = CCC(=O)*

B1: P309 (peptide)
peptide: HSDAVFTDNYTRLRXQVAAXKYLQSIKNSRTSPPP
modifications: N-terminal hexanoyl (C6); Aib (amino isobutyric acid) at positions 15 and 20; C-terminal amide (-NH2)
B2: P118 (peptide)
peptide: Hexanoyl-HSDAVFTDNYTRLRKQVAAKKYLQSIKNSRTSPPPK(Trp)-NH2
SMILES: CCCCCC(=O)N[C@@H](Cc1c[nH]cn1)C(=O)N[C@@H](CO)C(=O)N[C@@H](CC(=O)O)C(=O)N[C@@H](C)C(=O)N[C@H](C(=O)N[C@@H](Cc1ccccc1)C(=O)N[C@H](C(=O)N[C@@H](CC(=O)O)C(=O)N[C@@H](CC(N)=O)C(=O)N[C@@H](Cc1ccc(O)cc1)C(=O)N[C@H](C(=O)N[C@@H](CCCNC(=N)N)C(=O)N[C@@H](CC(C)C)C(=O)N[C@@H](CCCNC(=N)N)C(=O)N[C@@H](CCCCN)C(=O)N[C@@H](CCC(N)=O)C(=O)N[C@H](C(=O)N[C@@H](C)C(=O)N[C@@H](C)C(=O)N[C@@H](CCCCN)C(=O)N[C@@H](CCCCN)C(=O)N[C@@H](Cc1ccc(O)cc1)C(=O)N[C@@H](CC(C)C)C(=O)N[C@@H](CCC(N)=O)C(=O)N[C@@H](CO)C(=O)N[C@H](C(=O)N[C@@H](CCCCN)C(=O)N[C@@H](CC(N)=O)C(=O)N[C@@H](CO)C(=O)N[C@@H](CCCNC(=N)N)C(=O)N[C@H](C(=O)N[C@@H](CO)C(=O)N1CCC[C@H]1C(=O)N1CCC[C@H]1C(=O)N1CCC[C@H]1C(=O)N[C@@H](CCCCNC(=O)[C@@H](N)Cc1c[nH]c2ccccc12)C(N)=O)[C@@H](C)O)[C@@H](C)CC)C(C)C)[C@@H](C)O)[C@@H](C)O)C(C)C
B3: P81 (peptide)
peptide: Hexanoyl-HSDAVFTDNYTRLRKQVAAKKYLQSIKNSRTSPPPK([γGlu-Palmitoyl])-NH2
SMILES: CCCCCCCCCCCCCCCC(=O)N[C@@H](CCC(=O)NCCCC[C@H](NC(=O)[C@@H]1CCCN1C(=O)[C@@H]1CCCN1C(=O)[C@@H]1CCCN1C(=O)[C@H](CO)NC(=O)[C@@H](NC(=O)[C@H](CCCNC(=N)N)NC(=O)[C@H](CO)NC(=O)[C@H](CC(N)=O)NC(=O)[C@H](CCCCN)NC(=O)[C@@H](NC(=O)[C@H](CO)NC(=O)[C@H](CCC(N)=O)NC(=O)[C@H](CC(C)C)NC(=O)[C@H](Cc1ccc(O)cc1)NC(=O)[C@H](CCCCN)NC(=O)[C@H](CCCCN)NC(=O)[C@H](C)NC(=O)[C@H](C)NC(=O)[C@@H](NC(=O)[C@H](CCC(N)=O)NC(=O)[C@H](CCCCN)NC(=O)[C@H](CCCNC(=N)N)NC(=O)[C@H](CC(C)C)NC(=O)[C@H](CCCNC(=N)N)NC(=O)[C@@H](NC(=O)[C@H](Cc1ccc(O)cc1)NC(=O)[C@H](CC(N)=O)NC(=O)[C@H](CC(=O)O)NC(=O)[C@@H](NC(=O)[C@H](Cc1ccccc1)NC(=O)[C@@H](NC(=O)[C@H](C)NC(=O)[C@H](CC(=O)O)NC(=O)[C@H](CO)NC(=O)[C@H](Cc1c[nH]cn1)NC(=O)CCCCC)C(C)C)[C@@H](C)O)[C@@H](C)O)C(C)C)[C@@H](C)CC)[C@@H](C)O)C(N)=O)C(=O)O

Assays:
human VPAC2 [1] = molecular target: T1, human VPAC2 (Homo sapiens, UniProt P41587); assay: DiscoveRx cAMP in vitro potency, human VPAC2; assay type: cell-based
T1 construct: expressed in transfected cells
T1 sequence (P41587 24-438): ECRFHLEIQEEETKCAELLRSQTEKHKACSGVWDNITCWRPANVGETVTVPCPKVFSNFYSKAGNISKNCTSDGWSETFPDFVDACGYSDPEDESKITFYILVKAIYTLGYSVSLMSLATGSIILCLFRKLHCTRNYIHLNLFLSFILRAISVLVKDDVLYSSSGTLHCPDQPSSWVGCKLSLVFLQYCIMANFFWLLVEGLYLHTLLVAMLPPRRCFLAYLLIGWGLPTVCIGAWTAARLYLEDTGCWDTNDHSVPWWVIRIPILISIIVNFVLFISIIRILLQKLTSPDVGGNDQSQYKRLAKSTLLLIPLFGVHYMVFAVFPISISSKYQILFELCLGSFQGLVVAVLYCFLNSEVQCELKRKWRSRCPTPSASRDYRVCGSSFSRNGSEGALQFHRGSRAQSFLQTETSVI
Procedure: (§1) Also, the cells are washed twice. The cells are incubated in assay buffer plus IBMX for 15 minutes at room temperature. […] The stimuli are present for 30 minutes. Then, the assay buffer is gently removed. […] At day 3, the assay described above for the VPAC2 receptor cell line is performed.

human VPAC1 [2] = molecular target: T2, human VPAC1 (Homo sapiens, UniProt P32241); assay: Filter binding assay, human VPAC1 membranes, 125I-labeled VIP tracer; parameters: expressed in transfected cells
T2 sequence (P32241 31-457): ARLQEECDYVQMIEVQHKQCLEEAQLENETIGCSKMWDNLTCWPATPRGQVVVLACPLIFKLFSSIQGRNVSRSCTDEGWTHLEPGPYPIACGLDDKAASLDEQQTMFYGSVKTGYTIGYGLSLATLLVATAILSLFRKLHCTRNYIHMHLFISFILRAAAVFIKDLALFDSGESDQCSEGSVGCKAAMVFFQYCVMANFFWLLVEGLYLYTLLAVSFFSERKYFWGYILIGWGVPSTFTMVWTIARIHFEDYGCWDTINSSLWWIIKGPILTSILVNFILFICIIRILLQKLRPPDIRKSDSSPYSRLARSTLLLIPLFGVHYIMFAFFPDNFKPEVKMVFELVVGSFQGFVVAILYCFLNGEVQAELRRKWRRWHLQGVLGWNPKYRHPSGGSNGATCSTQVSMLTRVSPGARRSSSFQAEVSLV
Procedure: (§2) For this assay, the solutions and equipment include:
(§3) Presoak solution: 0.5% Polyethyleneamine in Aqua dest.
(§4) Buffer for flushing filter plates: 25 mM […] pH 7.4
(§5) Blocking buffer: 25 mM HEPES pH 7.4; 0.2% protease free BSA
(§6) Assay buffer: 25 mM HEPES pH 7.4; 0.5% protease free BSA
(§7) Dilution and assay plate: PS-Microplate, U form
(§8) Filtration Plate Multiscreen FB Opaque Plate; […] Type B Glasfiber filter
(§9) In order to prepare the filter plates, aspirate the presoak solution by vacuum filtration. Flush the plates twice with 200 μL flush buffer. Add 200 μL blocking buffer to the filter plate. The filter plate is then incubated […] for 1 hour at room temperature.
(§10) Fill the assay plate with 25 μL assay buffer, 25 μL membranes (2.5 μg) suspended in assay buffer, 25 μL compound (agonist) in assay buffer, and 25 μL tracer (about 40000 cpm) in assay buffer. Incubate the filled plate for 1 hour with shaking.
(§11) Conduct the transfer from assay plate to filter plate. Aspirate the blocking buffer by vacuum filtration and wash two times with flush buffer. Transfer 90 μL from the assay plate to the filter plate. Aspirate the 90 μL transferred from assay plate and wash three times with 200 μL flush buffer. Remove the plastic support. Dry for 1 hour at 60° C. Add 30 μL Microscint. Perform the count.

human VPAC2 [3] = molecular target: T1, human VPAC2; assay: Alpha screen cAMP in vitro potency, human VPAC2; assay type: cell-based
Procedure: Alpha screen: Cells are washed in the culture flask once with PBS. Then, the cells are rinsed with enzyme free dissociation buffer. The dissociated cells are removed. The cells are then spun down and washed in stimulation buffer. For each data point, 50,000 cells suspended in stimulation buffer are used. To this buffer, Alpha screen acceptor beads are added along with the stimuli. This mixture is incubated for 60 minutes. Lysis buffer and Alpha screen donor beads are added and are incubated for 60 to 120 minutes. The Alpha screen signal (indicative of intracellular cAMP levels) is read in a suitable instrument (e.g. AlphaQuest from Perlin-Elmer). Steps including Alpha screen donor and acceptor beads are performed in reduced light.

human VPAC2 [4] = molecular target: T1, human VPAC2; assay: Filter binding assay, human VPAC2 membranes, 125I-labeled VIP tracer
Procedure: as §2, §3, §4, §5, §6, §7, §8, §9, §10, §11

human VPAC1 [5] = molecular target: T2, human VPAC1; assay: DiscoveRx cAMP in vitro potency, human VPAC1; assay type: cell-based; parameters: expressed in transfected cells; host or cells: CHO-PO, transient transfection (Lipofectamine)
Procedure: as §1

human PAC1 [6] = molecular target: T3, human PAC1 (Homo sapiens, UniProt P41586); assay: cell-based
Procedure: as §1

human PAC1 [7] = molecular target: T3, human PAC1; assay: biochemical
Procedure: as §2, §3, §4, §5, §6, §7, §8, §9, §10, §11

rat VPAC1 receptor = molecular target: T4, rat VPAC1 receptor (rat, UniProt P30083); assay: cell-based or functional assay
T4 sequence: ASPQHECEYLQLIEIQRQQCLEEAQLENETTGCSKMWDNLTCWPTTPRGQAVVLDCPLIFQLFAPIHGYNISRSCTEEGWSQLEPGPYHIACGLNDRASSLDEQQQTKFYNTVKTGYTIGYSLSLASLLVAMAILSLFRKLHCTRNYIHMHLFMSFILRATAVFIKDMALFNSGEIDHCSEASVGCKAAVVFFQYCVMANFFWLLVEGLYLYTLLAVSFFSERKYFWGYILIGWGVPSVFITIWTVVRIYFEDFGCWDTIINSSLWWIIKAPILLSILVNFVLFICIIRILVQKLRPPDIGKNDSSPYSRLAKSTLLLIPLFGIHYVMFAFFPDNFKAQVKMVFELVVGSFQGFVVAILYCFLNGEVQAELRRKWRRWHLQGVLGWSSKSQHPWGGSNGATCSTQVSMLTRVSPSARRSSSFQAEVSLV

[8] = molecular target: T5, human VPAC2 receptor (human) (UniProt P41587)
T5 sequence: T1 sequence (P41587 24-438)

rat VPAC2 receptor = molecular target: T6, rat VPAC2 receptor (rat, UniProt P35000); assay: cell-based or functional assay
T6 sequence: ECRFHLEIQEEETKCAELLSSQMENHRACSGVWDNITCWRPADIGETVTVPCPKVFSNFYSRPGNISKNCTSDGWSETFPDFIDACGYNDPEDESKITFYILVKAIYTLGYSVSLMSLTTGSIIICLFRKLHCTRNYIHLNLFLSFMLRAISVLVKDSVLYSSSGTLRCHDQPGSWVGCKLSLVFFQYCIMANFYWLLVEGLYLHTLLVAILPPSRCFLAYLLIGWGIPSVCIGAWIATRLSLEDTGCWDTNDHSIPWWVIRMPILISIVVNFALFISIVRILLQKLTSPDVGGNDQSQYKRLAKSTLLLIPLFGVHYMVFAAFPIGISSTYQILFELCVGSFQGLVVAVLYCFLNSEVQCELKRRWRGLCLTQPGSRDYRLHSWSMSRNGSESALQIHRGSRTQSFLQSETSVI

T3 sequence (P41586 21-468): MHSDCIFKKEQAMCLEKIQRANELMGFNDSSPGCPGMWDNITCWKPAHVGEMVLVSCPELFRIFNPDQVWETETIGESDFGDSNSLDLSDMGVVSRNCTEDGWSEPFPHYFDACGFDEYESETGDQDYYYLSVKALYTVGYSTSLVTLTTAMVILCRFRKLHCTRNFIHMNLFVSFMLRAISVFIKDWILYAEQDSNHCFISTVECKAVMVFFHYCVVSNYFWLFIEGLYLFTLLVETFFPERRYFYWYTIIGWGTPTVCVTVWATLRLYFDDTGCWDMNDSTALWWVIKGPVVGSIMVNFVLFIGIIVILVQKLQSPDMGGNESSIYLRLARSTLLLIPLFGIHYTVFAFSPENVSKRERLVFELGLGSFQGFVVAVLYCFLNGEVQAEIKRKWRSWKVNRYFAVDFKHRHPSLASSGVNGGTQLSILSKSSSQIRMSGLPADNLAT

| Molecule | EC50 (human VPAC2 [1]) [nM] | IC50 (human VPAC1 [2]) [nM] | EC50 (human VPAC2 [3]) [nM] | IC50 (human VPAC2 [4]) [nM] | EC50 for cAMP generation, DiscoveRx (rat VPAC1 receptor) [nM] | EC50 (nM) for cAMP generation, Alpha Screen [8] [nM] | other results |
| --- | --- | --- | --- | --- | --- | --- | --- |
| CCCCCCCCCCCCCCCC(=O)N[C@@H](CCC(=O)NCCCC[C@H](NC(=O)[C@@H]1CCCN1C(=O)[C@@H]1CCCN1C(=O)[C@@H]1CCCN1C(=O)[C@H](CO)NC(=O)[C@@H](NC(=O)[C@H](CCCNC(=N)N)NC(=O)[C@H](CO)NC(=O)[C@H](CC(N)=O)NC(=O)[C@H](CCCCN)NC(=O)[C@@H](NC(=O)[C@H](CO)NC(=O)[C@H](CCC(N)=O)NC(=O)[C@H](CC(C)C)NC(=O)[C@H](Cc1ccc(O)cc1)NC(=O)[C@H](CCCCN)NC(=O)[C@H](CCCCN)NC(=O)[C@H](C)NC(=O)[C@H](C)NC(=O)[C@@H](NC(=O)[C@H](CCC(N)=O)NC(=O)[C@H](CCCCN)NC(=O)[C@H](CCCNC(=N)N)NC(=O)[C@H](CC(C)C)NC(=O)[C@H](CCCNC(=N)N)NC(=O)[C@@H](NC(=O)[C@H](Cc1ccc(O)cc1)NC(=O)[C@H](CC(N)=O)NC(=O)[C@H](CC(=O)O)NC(=O)[C@@H](NC(=O)[C@H](Cc1ccccc1)NC(=O)[C@@H](NC(=O)[C@H](C)NC(=O)[C@H](CC(=O)O)NC(=O)[C@H](CO)NC(=O)[C@H](Cc1c[nH]cn1)NC(=O)CC)C(C)C)[C@@H](C)O)[C@@H](C)O)C(C)C)[C@@H](C)CC)[C@@H](C)O)C(N)=O)C(=O)O [Agonist P95] (Propionyl-HSDAVFTDNYTRLRKQVAAKKYLQSIKNSRTSPPPK([γGlu-Palmitoyl])-NH2) | 0.45 | 203 | 0.24 | 21.6 | – | – | – |
| Ac-HSDAVFTDNYTRLRKQVAAKKYLQSIKNSRTSPPP-NH2 [Agonist P32] | 0.65 | 38.3 | 0.32 | 0.89 | – | – | EC50 (human VPAC1 [5]): 8.24 nM; EC50 (human PAC1 [6]): 125 nM |
| HSDAVFTDNYTRLRKQVAAKKYLQSIKNSRTSPPP-NH2 [Agonist P5] | 1.21 | 56.7 | 1.5 | 0.67 | – | – | IC50 (human PAC1 [7]): 234 nM; EC50 (human VPAC1 [5]): 1.1 nM; EC50 (human PAC1 [6]): 30 nM |
| HSDAVFTDNYTRLRKAAAAKKYLQSIKNSRTSPPP-NH2 [P97] | – | – | – | – | 0.3 | 0.64 | – |
| B1 | – | – | – | – | – | 0.16 | EC50 for cAMP generation, DiscoveRx (rat VPAC2 receptor): 0.05 nM |
| B2 | – | – | – | – | 0.47 | – | – |
| B3 | – | – | – | – | 0.8 | 0.01 | EC50 for cAMP generation, DiscoveRx (rat VPAC2 receptor): 0.05 nM; EC50 (nM) for cAMP generation, DiscoveRx [8]: 0.18 nM |
